Key:
pT2609 and γH2Ax foci = assay: Confocal immunofluorescence of pT2609-DNA-PKcs and γH2Ax foci in U2OS cells; conditions: UNC0638 together with ETO, Pearson correlation coefficient, n=5
γH2Ax = γH2Ax level by Western blot in U2OS cells; type: cell-based; conditions: UNC0638 with etoposide
G9a/GLC = assay: H3K9me2 level in U2OS cells; type: cell-based; conditions: incubation with inhibitor vs solvent DMSO

In the case of `COc1cc2c(NC3CCN(C(C)C)CC3)nc(C3CCCCC3)nc2cc1OCCCN1CCCC1` [UNC0638], the “colocalization pattern of γH2Ax and pT2609 foci” value (pT2609 and γH2Ax foci) is reported as “did not significantly alter”, the “effect on etoposide-induced γH2Ax pattern” value (γH2Ax) is reported as “not affected” and the H3K9me2 level (G9a/GLC) is reported as “decreased”.

Source: article PMC4032624 (Molecular cell, 2013)
